Values after ≈ are worked out from the molar mass of the structure shown. Like-named read-outs stand apart in the source and are kept apart here. Blank lines part the entries; values can stand above or below the molecule they belong to.
What was measured:
[1] = system: Gli1 mRNA expression in the Hh-dependent murine BCC cell line ASZ001; experiment: Hh inhibition: Gli1 mRNA expression in ASZ001 cells (qPCR); type: cell-based; conditions: for IC50: ASZ001 cells
Description: In order to continue SAR exploration of this region of the scaffold, efforts sought to synthesize and evaluate analogues that continue the scaffold truncation that was previously probed by removing the phenyl ring on the ‘right side’ of the scaffold and directly appending the 3-phenolic carboxylic acid of 2 to the piperazine amine to provide analogue 3. This analogue was evaluated for its ability to decrease Gli1 mRNA expression in the Hh-dependent murine BCC cell line ASZ001.
(§1) General protocols for cell culture, qPCR, and Hh inhibition in ASZ001 cells, C3H10T1/2 cells, and Sufu^−/− MEFs cells are as previously described (Pace et al. “Repurposing the clinically efficacious antifungal agent itraconazole as an anticancer chemotherapeutic. J. Med. Chem. 2016, 59, 3635-3649; Maschinot et al. “Synthesis and evaluation of third generation vitamin D3 analogues as inhibitors of Hedgehog signaling.” Eur. J. Med. Chem. 2019, 162, 495-506.). HC-04 cells were maintained in Dulbecco's modified Eagle's medium (Gibco Life Technologies) supplemented with 10% heat-inactivated fetal bovine serum (Gibco) and 1% pen-strep (Gibco) at 37° C. in 5% CO2. Cells were split 1:5 every 2-3 days, once they reached ˜80% confluency. Antiproliferation assay against HC-04 cells was using MTS method. The general protocol was the same as described earlier. (Banerjee et al. “Evaluation of vitamin D3 A-ring analogues as hedgehog pathway inhibitors.” Bioorg. Med. Chem. Lett. 2012, 22, pp. 1330-1334.) All data were analyzed with GraphPad Prism 5 and reported values represent the mean±SEM for at least two separate experiments carried out in triplicate for qPCR assay; or performed for at least three separate experiments carried out in quadruplicate for MTS assay.

[2] = in vitro; type: cell-based, human; conditions: human
Description: (§2) The activity for both metabolites prompted a study of their PK profile (Table 3). […] In addition, significant improvements in solubility at pH 7.4 and pH 4.0 compared to ITZ were found for analogue 21. Finally, the general toxicity of compounds 11 and 21 were evaluated by exploring their anti-proliferative activity in HC-04 cells, a human hepatocyte-derived cell line that abundantly expresses drug metabolizing enzymes (Table 5).
as §1

[3] = system: Gli1 mRNA in the Hh-dependent mouse embryonic fibroblast C3H10T1/2 cell line; experiment: Gli1 mRNA down-regulation in C3H10T1/2 cells (qPCR); type: cell-based; conditions: Mean ± SEM
Description: (§3) Both metabolites retain potent inhibition of Hh signaling (Table 3). […] Based on the improved activity of the truncated analogue 21, which contains approximately half of the intact ITZ scaffold, this analogue was also evaluated in Sufu^−/− mouse embryonic fibroblasts (MEFs) to determine whether Smo is still the most likely target of the metabolite.
as §1

[4] = PBS solubility
[5] = Microsomal stability in human liver microsomes; conditions: for Microsomal Stability T1/2 / Microsomal Stability Clint / half-life / microsomal CLint: human liver microsomes; for Microsomal Stability Clint: predicted intrinsic clearance; for half-life / microsomal CLint: human
[6] = system: Sufu−/− mouse embryonic fibroblasts (MEFs); experiment: Hh inhibition in Sufu−/− MEFs; type: cell-based
Description: as §3
General protocols for cell culture, qPCR, and Hh inhibition in ASZ001 cells, C3H10T1/2 cells, and Sufu^−/− MEFs cells are as previously described (Pace et al. “Repurposing the clinically efficacious antifungal agent itraconazole as an anticancer chemotherapeutic. J. Med. Chem. 2016, 59, 3635-3649; Maschinot et al. “Synthesis and evaluation of third generation vitamin D3 analogues as inhibitors of Hedgehog signaling.” Eur. J. Med. Chem. 2019, 162, 495-506.). […] (Banerjee et al. “Evaluation of vitamin D3 A-ring analogues as hedgehog pathway inhibitors.” Bioorg. Med. Chem. Lett. 2012, 22, pp. 1330-1334.) All data were analyzed with GraphPad Prism 5 and reported values represent the mean±SEM for at least two separate experiments carried out in triplicate for qPCR assay; or performed for at least three separate experiments carried out in quadruplicate for MTS assay.

[7] = system: HC-04 cells; experiment: in vitro; type: cell-based, human
Description: as §2, §1

[8] = human, microsomes
[9] = Mus musculus, Gli1 mRNA expression, Mean ± SEM of at least two experiments in triplicate, read-out: ASZ001, IC50
[10] = C3H 10T1/2, Gli1 expression up-regulated by recombinant mouse sonic hedgehog (SHh), read-out: C3H10T1/2, IC50, SHh
[11] = Mus musculus, C3H 10T1/2, Gli1 expression up-regulated by oxysterols (OHCs), read-out: C3H10T1/2, IC50, OHCs
[12] = Gli1 mRNA expression, Mean ± SEM of at least two experiments in triplicate, read-out: ASZ001, IC50

IC50 [1, 9]: 570 nM
Molecule: C[C@]1(c2ccc(Cl)cc2Cl)OC[C@@H](COc2ccc(N3CCN(C(=O)c4ccncc4)CC3)cc2)O1 [Compound 7]

GI50 [2]: > 100 µM
Molecule: CS(=O)(=O)c1ccc(C(=O)Nc2ccc(Cl)c(-c3ccccn3)c2)c(Cl)c1 [Vismodegib, reference compound]
IC50 [3, 10]: 22 ± 20 nM
IC50 [3, 11]: 10 ± 12 nM

IC50 [1, 12]: 120 nM
Molecule: N-(4-(4-(((2S,4R)-2-(2,4-Dichlorophenyl)-2-Methyl-1,3-Dioxolan-4-yl)Methoxy)Phenyl)Piperazin-l-yl)-2-((3-hydroxyphenyl)methylene)Hydrazinecarboxamide [Compound 18]

IC50 [1, 9]: 460 nM
Molecule: COc1cccc(CCC(=O)N2CCN(c3ccc(OC[C@@H]4CO[C@](C)(c5ccc(Cl)cc5Cl)O4)cc3)CC2)c1 [Compound 16]

IC50 [1, 9]: 230 nM
Molecule: C[C@]1(c2ccc(Cl)cc2Cl)OC[C@@H](COc2ccc(N3CCN(C(=O)CCc4ccccc4)CC3)cc2)O1 [Compound 15]

Solubility, PBS pH 4.0 [4]: 0.25 μM
Solubility, PBS pH 7.4 [4]: 0.13 μM
IC50 [1, 9]: 380 ± 40 nM
more stable (HLM stability) ([5]; 10 compared with 11, human liver microsomes): approximately 6.5 fold
Microsomal Stability T1/2 [5]: 20.4 ± 0.4 min
Microsomal Stability Clint [5]: 33.9 ± 0.6 µL/min/mg
Molecule: C[C@]1(c2ccc(Cl)cc2Cl)OC[C@@H](COc2ccc(N3CCN(C(=O)Cc4cccc(O)c4)CC3)cc2)O1 [Compound 10]

IC50 [1, 9]: 1420 ± 300 nM
Molecule: C[C@]1(c2ccc(Cl)cc2Cl)OC[C@@H](COc2ccc(N3CCN(C(=O)c4ccccn4)CC3)cc2)O1 [Compound 5]

IC50 [1, 9]: 360 ± 50 nM
Molecule: C[C@]1(c2ccc(Cl)cc2Cl)OC[C@@H](COc2ccc(N3CCN(C(=O)/C=C/c4ccc(O)cc4)CC3)cc2)O1 [Compound 14, 4-Hydroxy-N-(4-(4-(((2S,4R)-2-(2,4-Dichlorophenyl)-2-Methyl-1,3-Dioxolan-4-yl)Methoxy)Phenyl)Piperazin-1-yl)Cinnamamide]

IC50 [1, 9]: 580 nM
Molecule: C[C@@]1(c2ccc(Cl)cc2Cl)OCC(COc2ccc(N3CCN(C(=O)N/N=C/c4cccc(O)c4)CC3)cc2)O1 (some centres unmarked) [Compound 20]
less active (Hh inhibition) ([1]; 2R,4R-trans 20 compared with cis 18, ASZ001): approximately 5 fold

GI50 ([7]; human): 27.3 µM
Solubility, PBS pH 4.0 [4]: 169.3 μM
Solubility, PBS pH 7.4 [4]: 11.7 μM
IC50 [1, 9]: 22 nM
Microsomal Stability T1/2 [5]: 50.7 min
Microsomal Stability Clint [5]: 13.7 ± 0.4 µL/min/mg
Molecule: C[C@]1(c2ccc(Cl)cc2Cl)OC[C@@H](COc2ccc(N3CCNCC3)cc2)O1 [Compound 21, 1-(4-(((2S,4R)-2-(2,4-Dichlorophenyl)-2-Methyl-1,3-Dioxolan-4-yl)Methoxy)Phenyl)Piperazine]
anti-Hh activity in Sufu−/− MEFs [6]: completely abolished
IC50 [3, 10]: 1530 ± 200 nM
IC50 [3, 11]: 2700 ± 200 nM

IC50 [1, 9]: 260 ± 30 nM
Molecule: C[C@]1(c2ccc(Cl)cc2Cl)OC[C@@H](COc2ccc(N3CCN(C(=O)CCc4ccc(O)cc4)CC3)cc2)O1 [Compound 13]

GI50 ([7]; human): 13.2 µM
GI50 [2]: 13.2 ± 0.5 µM
Solubility, PBS pH 4.0 [4]: 0.13 μM
Solubility, PBS pH 7.4 [4]: 0.03 μM
IC50 ([1]; Mus musculus, read-out: IC50 value (anti-Hh activity)): 81 nM
IC50 [1, 9]: 81 nM
Microsomal Stability T1/2 [5]: 3.2 min
Microsomal Stability Clint [5]: 218 ± 9.7 µL/min/mg
Molecule: C[C@]1(c2ccc(Cl)cc2Cl)OC[C@@H](COc2ccc(N3CCN(C(=O)CCc4cccc(O)c4)CC3)cc2)O1 [Compound 11]
IC50 [3, 10]: 170 ± 90 nM
IC50 [3, 11]: 650 ± 70 nM

Solubility, PBS pH 4.0 (pH 4): 0.05 μM
Solubility, PBS pH 7.4: 0.02 μM
Microsomal Stability T1/2 [8]: 11.4 ± 0.2 min
IC50 [1, 12]: 960 nM
Molecule: N-(4-(4-(((2S,4R)-2-(2,4-Dichlorophenyl)-2-Methyl-1,3-Dioxolan-4-yl)Methoxy)Phenyl)Piperazin-l-yl)-2-((4-hydroxyphenyl)methylene)Hydrazinecarboxamide [Compound 19]

IC50 [1, 9]: 470 nM
Molecule: C[C@]1(c2ccc(Cl)cc2Cl)OC[C@@H](COc2ccc(N3CCN(C(=O)CCCc4ccc(O)cc4)CC3)cc2)O1 [Compound 17, 4-Hydroxy-N-(4-(4-(((2S,4R)-2-(2,4-Dichlorophenyl)-2-Methyl-1,3-Dioxolan-4-yl)Methoxy)Phenyl)Piperazin-1-yl)Phenylbutyric Amide]

solubility ([4]; pH 7.4, aqueous buffer): 0.84 µM (≈ 0.494 µg/mL)
IC50 [1, 9]: 89 nM
half-life [5]: 6.6 min
microsomal CLint [5]: 104.7 ± 0.1 µL/min/mg
Molecule: C[C@]1(c2ccc(Cl)cc2Cl)OCC(COc2ccc(N3CCN(C(=O)CCc4ccc(O)c(O)c4)CC3)cc2)O1 (some centres unmarked) [Compound 22]

IC50 [1, 9]: 580 nM
Molecule: C[C@]1(c2ccc(Cl)cc2Cl)OC[C@@H](COc2ccc(N3CCN(C(=O)c4ccc(O)cc4)CC3)cc2)O1 [Compound 4]

IC50 [1, 9]: 220 ± 30 nM
Molecule: C[C@]1(c2ccc(Cl)cc2Cl)OC[C@@H](COc2ccc(N3CCN(C(=O)/C=C/c4cccc(O)c4)CC3)cc2)O1 [Compound 12]
loss in Hh inhibitory activity ([1]; trans-alkene 12 compared with 11, ASZ001): approximately 3 fold

IC50 [1, 9]: 160 nM
Molecule: C[C@]1(c2ccc(Cl)cc2Cl)OC[C@@H](COc2ccc(N3CCN(C(=O)c4ccc([N+](=O)[O-])cc4)CC3)cc2)O1 [Compound 8]

IC50 [1, 9]: 280 nM
Molecule: C[C@]1(c2ccc(Cl)cc2Cl)OC[C@@H](COc2ccc(N3CCN(C(=O)c4ccc(N)cc4)CC3)cc2)O1 [Compound 9]

solubility ([4]; pH 4, aqueous buffer): 0.13 µM (≈ 0.0725 µg/mL)
solubility ([4]; pH 7.4, aqueous buffer): 0.02 µM (≈ 0.0112 µg/mL)
IC50 [1, 9]: 870 nM
half-life [5]: 14 min
microsomal CLint [5]: 50 ± 0.8 µL/min/mg
Molecule: C[C@]1(c2ccc(Cl)cc2Cl)OCC(COc2ccc(N3CCN(CCCc4cccc(O)c4)CC3)cc2)O1 (some centres unmarked) [Compound 23]

GI50 [7]: > 50 µM
Solubility, PBS pH 7.4: 0.80 μM
Microsomal Stability T1/2 [8]: 27.0 ± 6.2 min
IC50 [1, 12]: 140 ± 20 nM
Molecule: Itraconazole [ITZ, reference compound]
IC50 ([3]; Gli1 expression up-regulated by oxysterols (OHCs), read-out: C3H10T1/2, IC50, OHCs): 5900 ± 1300 nM
IC50 ([3]; Gli1 expression up-regulated by recombinant mouse sonic hedgehog (SHh), read-out: C3H10T1/2, IC50, SHh): 240 ± 200 nM

IC50 [1, 9]: 1300 ± 310 nM
Molecule: C[C@]1(c2ccc(Cl)cc2Cl)OC[C@@H](COc2ccc(N3CCN(C(=O)c4cccnc4)CC3)cc2)O1 [Compound 6]

Solubility, PBS pH 4.0 [4]: 0.31 μM
Solubility, PBS pH 7.4 [4]: 0.17 μM
IC50 [1, 9]: 260 nM
Microsomal Stability T1/2 [5]: 15.9 ± 0.2 min
Microsomal Stability Clint [5]: 43 ± 0.6 µL/min/mg
Molecule: C[C@]1(c2ccc(Cl)cc2Cl)OC[C@@H](COc2ccc(N3CCN(C(=O)c4cccc(O)c4)CC3)cc2)O1 [Compound 3]

Source: US12435067B2, “Truncated itraconazole analogues and methods of use thereof” (University of Connecticut, priority 2019, dated 2025)
